This test concerns the target Perilipin-1 (Homo sapiens) (UniProt O60240). Kind of test: ABHD5 and perilipin-1 interaction blockers – biochemical, luminescence, counter-screen for ABHD5-PLIN5 interaction inhibitor project, dose response (AID 651672).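 Note: split Gaussia luciferase complementation between ABHD5 and PLIN1 fusion fragments.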 The conditions noted are these: ABHD5-PLIN1 interaction. (In general: The purpose of a counterscreen is to sort out artefacts and off-target activity.)

90 compounds from PubChem BioAssay AID651672 (The Scripps Research Institute Molecular Screening Center, 2012) can be followed below.

Active and inactive are the calls of the source. The rule behind the calls is not given here.

A word on the IC50: it is the point on the concentration scale where inhibition reaches its midpoint.

Sequence of Perilipin-1 (Homo sapiens) (O60240 whole entry, looked up, the tested form may be a part): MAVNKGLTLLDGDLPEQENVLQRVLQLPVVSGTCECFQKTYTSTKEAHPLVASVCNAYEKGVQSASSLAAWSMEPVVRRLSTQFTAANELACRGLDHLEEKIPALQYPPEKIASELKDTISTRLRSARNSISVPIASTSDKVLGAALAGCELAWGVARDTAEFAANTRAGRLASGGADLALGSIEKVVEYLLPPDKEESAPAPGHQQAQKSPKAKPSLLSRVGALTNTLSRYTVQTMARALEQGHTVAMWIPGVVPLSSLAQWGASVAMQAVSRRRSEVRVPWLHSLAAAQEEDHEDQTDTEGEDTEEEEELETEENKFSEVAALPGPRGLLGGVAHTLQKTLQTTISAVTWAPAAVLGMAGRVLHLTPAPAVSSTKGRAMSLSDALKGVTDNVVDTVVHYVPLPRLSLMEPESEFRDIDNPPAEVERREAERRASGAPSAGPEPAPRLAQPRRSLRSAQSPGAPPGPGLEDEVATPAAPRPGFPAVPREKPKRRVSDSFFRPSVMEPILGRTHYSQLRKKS

Turning to `COCCN(CCOC)c1nc(N)c2c(N)nc3c(c2c1C#N)CC(=O)N3Cc1ccc(Cl)cc1`, the IC50 was 6.57 µM. For the compound `O=C(NC1CCCCC1)C(c1ccnc2ccccc12)n1c(=O)c(-c2ccco2)nc2ccccc21` (stereo not given), the IC50 was 2.25 µM. Next, `O=C(NC1CCCCC1)C(c1cc2ccccc2o1)n1c(=O)c(-c2ccco2)nc2ccccc21` (stereo not given): 1.29 µM.

As to `Cc1cccc(C)c1NC(=O)C(c1cccc2ccccc12)n1c(=O)c(-c2ccco2)nc2ccccc21` (stereo not given), the IC50 is 2.4 µM. As to `CC(CCc1ccco1)NC(=O)CCc1nnc2ccc(NCc3ccccc3Cl)nn12` (stereo not given), the IC50 was 2.03 µM.

For the compound `CC(c1nc2ccccc2[nH]1)n1c(=O)c(-c2ccco2)nc2ccccc21` (stereo not given), the IC50 was 3.37 µM. Then `COC(=O)c1cc(=O)n(Cc2ccco2)c(=Nc2ccc(F)cc2)s1`, with 3.19 µM; and `c1ccc(CCC2=NCCn3cccc32)cc1`, with “inactive”; and `C=CC(=O)N1c2ccccc2Sc2ccc(NC(=O)OCC)cc21`, with 5.01 µM.

Take `CC1=CC(C)(C)Nc2ccc(OC(=O)CN3C(=O)c4cccc5cccc(c45)C3=O)cc21`: the IC50 was 6.42 µM. Then `Cc1ccc2sc(N(CCCN(C)C)C(=O)CN3C(=O)c4ccccc4C3=O)nc2c1C`, with “inactive”; and `Cc1cccc(C)c1NC(=O)C(c1ccnc2ccccc12)n1c(=O)c(-c2ccco2)nc2ccccc21` (stereo not given), with 3.32 µM; and `CC(=O)Oc1c(Cl)cc(N(C(C)=O)S(=O)(=O)c2ccccc2)c2ccccc12`, with 3.88 µM. Next, `CCN(CC)CCNC(=O)c1ccc(NC(=O)c2cn(-c3ccccc3)nc2-c2cccs2)cc1`: “inactive”; `Cc1cc(C)c(C(CC(=O)c2cccs2)C(C#N)C#N)c(C)c1` (stereo not given): 6.74 µM; `COc1cc2c(cc1OC)C(C)N(CCc1ccc(Cl)cc1)CC2` (stereo not given): “inactive”. Next, `O=C(NC1CCCCC1)C(C1CC1)n1c(=O)c(-c2ccco2)nc2ccccc21` (stereo not given): 3.11 µM; `CCCCNC(=O)Nc1ccc2c(c1)N(C)C(=O)c1ccccc1S2`: 3.19 µM. As for `O=C(NCc1ccccc1)C(C1CC1)n1c(=O)c(-c2ccco2)nc2ccccc21` (stereo not given), the IC50 was 6.05 µM.

For `CCN1C/C(=C/c2ccc(OC)c(O)c2)C(=O)/C(=C/c2ccc(OC)c(O)c2)C1`, the IC50 was 7.54 µM. Next, `Cc1ccc(S(=O)(=O)N2C[C@@]3(O)Cn4c(=O)ccc(=O)n4C[C@@]3(OC(=O)NCC3CCCCC3)C2)cc1`: 6.22 µM.

For `Cc1ccc(S(=O)(=O)N2C[C@H]3n4c(=O)ccc(=O)n4C[C@H](OC(=O)Nc4cccs4)[C@@]3(O)C2)cc1`, the IC50 was 6.5 µM. Next, `O=c1[nH]c(C2CCN(S(=O)(=O)c3ccc(S(=O)(=O)NC4CC4)cc3)CC2)nc2c1nnn2Cc1ccc(F)cc1`: 3.56 µM; `O=C1NC(=S)NC(=O)C12C(c1ccccc1)NC(=S)NC2c1ccccc1` (stereo not given): 4.34 µM; `CCOC(=O)c1c(NC(C)=O)sc2c1CCC(C=O)=C2Sc1ccccc1`: 3.11 µM. Then `O=C1/C(=C/c2cccnc2)CC/C1=C\c1cccnc1`, with 5.83 µM. Then `CC1=CC(C)(C)Nc2ccc(OC(=O)C(C)N3C(=O)c4ccccc4C3=O)cc21` (stereo not given), with 1.82 µM. With `O=[N+]([O-])/C=C/c1cn(Cc2ccc(F)cc2)c2ccccc12`, the IC50 was 7.46 µM.

With `CC(=O)Cc1cc(O)c2ccccc2c1OC(=O)c1ccc(Br)cc1`, the IC50 was 1.6 µM. In the case of `Oc1ccc2sc(-c3ccccc3O)c(-c3ccc(OCCN4CCCCC4)cc3)c2c1`, the IC50 is 7.15 µM. Then `O=C(NCc1ccccc1)C(c1cccc2ccccc12)n1c(=O)c(-c2ccco2)nc2ccccc21` (stereo not given), with 2.06 µM.

With `CCOC(=O)/C(=C\c1ccc(Cl)cc1)c1nc2sc(C)c(C)c2c(=O)[nH]1`, the IC50 was 0.525 µM.

As for `CSc1nnc(NC(=O)c2nc(S(=O)(=O)Cc3cccc(C)c3)ncc2Cl)s1`, the half-inhibitory concentration (IC50) is 2.7 µM. For the compound `CCC(c1nc2ccccc2[nH]1)n1c(=O)c(-c2ccco2)nc2ccccc21` (stereo not given), the IC50 is 3.97 µM. Next, `CC1CN(Cc2c(O)ccc3c2oc(=O)c2ccccc23)CC(C)O1` (stereo not given): 2.92 µM.

For `COc1ccc(NC(=O)C(c2ccc(C#N)cc2)n2c(=O)c(-c3ccco3)nc3ccccc32)cc1` (stereo not given), the IC50 result is “inactive”. `CCCCOC(=O)Nc1cc(C(=O)OC)ccc1C(=O)OC`: the half-inhibitory concentration (IC50) was 6.03 µM.

As to `O=C(COc1ccccc1Cl)Nc1ccc(N2CCCC2)cc1`, the IC50 is > 39.9 µM (inactive). Next, `C#CCN(C[C@@H]1[C@@H](OC(=O)NCc2ccccc2F)[C@@H](OC(=O)NCc2ccccc2F)Cn2c(=O)ccc(=O)n21)S(=O)(=O)c1ccc(C)cc1`: 4.51 µM; `CC1(C)C2CCC(CN=C(N)CSS(=O)(=O)O)C1C2` (stereo not given): 4.29 µM. For `CN1CCC(=C2c3ccccc3CC(=O)c3sccc32)CC1`, the IC50 result was “inactive”. Then `COC(=O)c1ccc(Cn2cc(/C=C\[N+](=O)[O-])c3ccccc32)o1`, with > 13.3 µM (inactive). Next, `CC1CCN(S(=O)(=O)c2ccc(NC(=O)Cc3cccs3)cc2)CC1`: 7.02 µM; `COc1ccc(-c2cc(N)n(S(=O)(=O)c3c(F)c(F)c(F)c(F)c3F)n2)cc1OC`: 9.95 µM; `Cc1nc(-c2ccccc2)sc1C(=O)/C=C/c1ccccc1`: 2.77 µM. Next, `CC(C)(C)NC(=O)C(c1ccc(C#N)cc1)n1c(=O)c(-c2ccco2)nc2ccccc21` (stereo not given): 1.41 µM; `Cc1cccc(NC(=O)CSc2nnc(-c3ccco3)c(-c3ccco3)n2)c1`: 1.92 µM. In the case of `CC(C)(C)NC(=O)C(c1ccccc1F)n1c(=O)c(-c2ccco2)nc2ccccc21` (stereo not given), the IC50 was 2.27 µM.

For the compound `Cc1nnc(NC(=O)c2nc(S(=O)(=O)Cc3ccccc3C)ncc2Cl)s1`, the IC50 was 3.92 µM. Then `Cc1ccc(C(=O)/C=C/c2cc(Br)cc(Br)c2O)o1`, with 5.75 µM; and `N#Cc1ccc(C(C(=O)NC2CCCCC2)n2c(=O)c(-c3ccco3)nc3ccccc32)cc1` (stereo not given), with 1.92 µM; and `Cc1ccc(O)c(C(=O)/C=C/c2ccc3c(c2)OCCCO3)c1`, with 4.63 µM. Consider `N#Cc1ccccc1OCc1cn(CC(=O)c2ccc(O)cc2)nn1`, for which the IC50 is 4.12 µM. For the compound `COc1ccccc1C=CC(=O)C=Cc1ccccc1OC`, the IC50 is 5.34 µM. Then `Cc1ccc(/C=C/C(=O)c2cc(Br)ccc2OC(=O)c2ccco2)cc1`, with 0.684 µM; and `CCCC(=O)NC(c1cccc([N+](=O)[O-])c1)c1ccc2cccnc2c1O` (stereo not given), with > 39.8 µM (inactive). For the compound `CCN(CC)CCC(C)OC(c1ccccc1)c1ccccc1` (stereo not given), the IC50 is 2.6 µM. Then `O=C(NC1CCCCC1)C(c1ccccc1)n1c(=O)c(-c2ccco2)nc2ccccc21` (stereo not given), with 0.964 µM; and `CC(C)(C)NC(=O)C(C1CC1)n1c(=O)c(-c2ccco2)nc2ccccc21` (stereo not given), with 4.21 µM. Then `CSc1nnc(NC(=O)c2nc(S(=O)(=O)Cc3ccc(C)cc3)ncc2Cl)s1`, with 3.1 µM; and `COc1ccc(C(C(=O)Nc2ccc3c(c2)OCCO3)n2c(=O)c(-c3ccco3)nc3ccccc32)cc1` (stereo not given), with 5.43 µM.

In the case of `CCN(CCCc1ccccc1)CCCc1ccccc1`, the IC50 was 2.26 µM. Next, `O=C(NCc1ccccc1)C(c1ccc(-c2ccccc2)cc1)n1c(=O)c(-c2ccco2)nc2ccccc21` (stereo not given): 3.44 µM; `CN(C)CCCN(C(=O)CCc1ccccc1)c1nc2ccc(Cl)cc2s1`: 6.98 µM. Take `Cc1ccc(C(=O)c2c(C)oc3c2C(=O)C(=O)c2ccccc2-3)cc1`: the concentration for half-maximal inhibition (IC50) was 5.4 µM.

In the case of `COC(=O)c1cc(=O)n(-c2ccc(F)cc2)c(=Nc2ccc(F)cc2)s1`, the IC50 was 2.5 µM.

Take `COc1ccc(NC(=O)C(c2ccc(OC)cc2)n2c(=O)c(-c3ccco3)nc3ccccc32)cc1` (stereo not given): the IC50 is 7.7 µM.

Take `Cc1cccc(C)c1NC(=O)C(c1ccccc1)n1c(=O)c(-c2ccco2)nc2ccccc21` (stereo not given): the IC50 was 3.37 µM. `CN(C)CCN(Cc1ccco1)c1ccccn1`: the IC50 result was “inactive”. Take `Cc1cccc(C)c1OCc1cn(CC(=O)c2ccc(O)cc2)nn1`: the IC50 is 2.98 µM. Regarding `COc1ccc(NC(=O)c2cc3ccccc3cc2O)cc1`, the IC50 result is “inactive”.

`Cc1cc(C)c2nc(NNC(=O)c3ccc(S(=O)(=O)N4CCCC(C)C4)cc3)sc2c1` (stereo not given): the IC50 is 3.01 µM. For the compound `O=C(NCc1ccccc1)C(c1ccccc1F)n1c(=O)c(-c2ccco2)nc2ccccc21` (stereo not given), the IC50 is 2.31 µM. With `CCSc1ccc2c(c1)N(CCCN1CCN(C)CC1)c1ccccc1S2`, the IC50 is 6.35 µM. Regarding `CC(=O)OCC1=C(C(=O)O)N2C(=O)C(NC(=O)CCn3nc(C(F)(F)F)c(Br)c3C3CC3)C2SC1` (stereo not given), the IC50 was 8.15 µM. On to `COCCNC(=O)/C(C#N)=C/c1cccc(/C=C(\C#N)C(=O)NCCOC)c1`, for which the IC50 was 0.804 µM. Next, `CSC(=Nc1ccccc1)N=C(SCc1ccccc1)N(C)C`: 1.18 µM; `O=C(Nc1ccc2c(c1)OCCO2)C(c1ccccc1F)n1c(=O)c(-c2ccco2)nc2ccccc21` (stereo not given): 9.21 µM. Then `CN1[C@@H]2CC[C@H]1CC(OC1c3ccccc3CCc3ccccc31)C2` (stereo not given in full), with 1.92 µM; and `CC(=O)Oc1ccc(C23c4ccccc4C2(OC(C)=O)c2cc(OC(C)=O)ccc23)cc1` (stereo not given), with 0.581 µM; and `O=C(NC1CCCCC1)C(c1ccccc1F)n1c(=O)c(-c2ccco2)nc2ccccc21` (stereo not given), with 1.9 µM. Take `N#Cc1ccc(C(C(=O)NCc2ccccc2)n2c(=O)c(-c3ccco3)nc3ccccc32)cc1` (stereo not given): the IC50 is 1.7 µM. Next, `O=C1NC(=O)N(Cc2ccccc2)C(=O)/C1=C\C=C\c1ccco1`: 1.82 µM; `COc1cc(C(C)=O)ccc1OCc1cn(CC(=O)c2ccc(O)cc2)nn1`: 4.59 µM.

Turning to `CSc1nnc(NC(=O)c2nc(S(=O)(=O)Cc3ccccc3)ncc2Cl)s1`, the IC50 was 3.27 µM. Regarding `Cc1ccc(CC2(OCCN(C)C)CCC(C(C)(C)C)CC2)cc1` (stereo not given), the IC50 is 9.48 µM. Next, `O=C(NC1CCCCC1)C(c1ccc(-c2ccccc2)cc1)n1c(=O)c(-c2ccco2)nc2ccccc21` (stereo not given): 1.88 µM; `O=C(NCc1ccccc1)C(c1ccccc1)n1c(=O)c(-c2ccco2)nc2ccccc21` (stereo not given): 2.5 µM. `CS(=O)(=O)c1ccc(C(=O)NCCN2C(=O)S/C(=C\c3cccnc3)C2=O)cc1[N+](=O)[O-]`: the IC50 was 5.14 µM. Then `O=c1[nH]c(C2CCN(S(=O)(=O)c3ccc(F)cc3)CC2)nc2c1nnn2Cc1ccc2c(c1)OCCO2`, with “inactive”.
